No end group written: not given here.
How the values were obtained:
ERK = assay: Adhesion checkpoint activation, western blot of ERK phosphorylation (Ras/MAP kinase); type: cell-based, human; conditions: osteosarcoma cells on PET associations; 24 hours
Procedure: (§1) After 24 hours of culture, cells were permeabilized (10% SDS, 25 mM NaCl, 10 nM pepstatin and 10 nM leupeptin in distilled water and loading buffer), boiled for 10 minutes and resolved by reducing PAGE (Invitrogen). Proteins were transferred onto nitrocellulose, blocked, and labeled with HRP-conjugated antibodies (Invitrogen). Integrin αv, α5, α3, α4, β1, β, β5 and […] were blotted by treating the nitrocellulose with monoclonal anti-integrin (extracellular domain) αv, α5, α3, α4, β1, β3, β5 and β6 antibodies (Santa Cruz Biotechnology). Phosphor-Smad1/5/8 was blotted by treating the nitrocellulose with monoclonal anti-p-Smad1/5/8 (Santa Cruz Biotechnology). For all of the experiments the western blot was performed in triplicate, along with an additional blot for actin and coomassie blue staining to ensure constant protein load among samples.
(§2) Neoplastic cells (in this example osteosarcoma cells) were cultured on pharmaceutical associations comprising PET as a bioactive carrier and one of GFR-binding compounds of SEQ ID NO: 12, 19, 30 or 39. The main signaling pathways include: Ras/MAP kinase, FAK/Src kinase and PIP2 which are decreased after 24 hours as shown by western blot quantifications (FIG. 8). […] Finally, a decrease of 3-phosphoinositide-dependent protein kinase 1 (PDK1) protein expression was also was observed (FIG. 8C).

Src kinase = assay: Adhesion checkpoint activation, western blot of Src kinase phosphorylation (FAK/Src kinase); type: cell-based, human; conditions: osteosarcoma cells on PET associations; 24 hours
Procedure: as §1, §2

[1] = test system: 3-phosphoinositide-dependent protein kinase 1 (PDK1); assay: Adhesion checkpoint activation, western blot of PDK1 protein expression (PIP2); type: cell-based, human; conditions: osteosarcoma cells on PET associations; 24 hours
Procedure: as §1, §2

Paxillin = Paxillin gene expression by RT-PCR; type: cell-based, human; conditions: osteosarcoma cells on PET associations; 24 hours
Procedure: (§3) After 24 hours of culture, total RNA was extracted by using the RNeasy total RNA kit (Qiagen®) according to the manufacturer's instructions. Purified total RNA was used as a template in order to make cDNA by a reverse transcription reaction (Gibco BrI®) with random primers (Invitrogen®). The cDNA was then used as a template for a real-time PCR amplification in the presence of SYBR green reagents (Bio-Rad®) by using a thermocycler (iCycler, Biorad®). Data were analyzed with the iCycler IQ™® software and compared by the ΔΔCt method. Briefly, the mean Ct value of the target gene was normalized to its averaged Ct values of the housekeeping gene (GAPDH) to give a ΔCt value, which was then normalized to a control sample to obtain a ΔΔCt value. The results were obtained from two series of experiments performed in triplicate.
(§4) Neoplastic cells (in this example osteosarcoma cells) were cultured on pharmaceutical associations comprising PET as a bioactive carrier and one of GFR-binding compounds of SEQ ID NO: 12, 19, 30 or 39. After 24 hours, the Paxillin and Vinculin gene expression decreased as shown by RT-PCR (FIG. 9).

Vinculin = Vinculin gene expression by RT-PCR; type: cell-based, human; conditions: osteosarcoma cells on PET associations; 24 hours
Procedure: as §3, §4

[2] = test system: Cyclin D (arithmetic mean of Cyclin D1, Cyclin D2 and Cyclin D3); assay: Cyclin D profile by RT-PCR; type: cell-based, human; conditions: osteosarcoma cells on PET associations; after the first 30 min of cell culture
Procedure: as §3
Neoplastic cells (in this example osteosarcoma cells) were cultured on pharmaceutical associations comprising PET as a bioactive carrier and one of GFR-binding compounds of SEQ ID NO: 12, 19, 30 or 39. The Cyclin D (the arithmetic mean of Cyclin D1, Cyclin D2 and Cyclin D3) gene expression decreased after the first 30 min of cell culture as shown by RT-PCR (FIG. 10).

[3] = Stability of non-covalent association, release of FITC-labelled GFR-binding compound from carrier; type: physicochemical; conditions: SEQ ID NO: 9 with apatite ceramics, SEQ ID NO: 10 with type-I collagen sponge; after 3, 7 or 10 days
Procedure: Non-covalent associations of the bioactive carriers were performed under atmospheric conditions (air) at room temperature (about 22° C.). The non-covalent association was carried out using a mixture of GFR-binding compound of SEQ ID NO: 9 (concentration of 1×10^−3 M) with the apatite ceramics or a mixture of GFR-binding compound of SEQ ID NO: 10 (concentration of 1×10^−3M) with the type-I collagen sponge. The non-covalent pharmaceutical associations were characterized by covalently associating fluorescent GFR-binding compounds of SEQ ID NO: 9 and 10 (covalently bound to fluorescein isothiocyanate (FITC), FIG. 1).

[4] = test system: neoplastic cells (osteosarcoma cells); assay: Immunofluorescence visualization (actin, vinculin, DAPI) of neoplastic cells on grafted polymer scaffold, 24 hours; type: cell-based; conditions: polymer scaffold covalently modified with mixture of GFR-binding compound and RGD peptide; 24 hours of culture
Procedure: FIG. 12 is (a) a representation of a Quantitative Real Time PCR analysis of the expression of DMP-1, SCT and RANK-L in neoplastic cells (osteosarcoma cells) cultured on a native polymer scaffold (control) and on a polymer scaffold grafted with a mixture comprising a GFR-binding compound as defined in the present disclosure and a RGD peptide, after 24 hours of culture, (b) immunofluorescence staining of a representative neoplastic cell (osteosarcoma cells) cultured on a polymer scaffold grafted with a mixture comprising a GFR-binding compound as defined in the present disclosure (ID SEQ NO: 2) and a RGD peptide, after 24 hours of culture. The actin filaments were immunostained by using Alexa 488-phalloidin. The focal adhesions were represented by immunostaining with anti-vinculin. The nucleus was stained with DAPI and is represented by a circle in the center of the cell. Scale bar: 5 μm. (c) is a diagram representing the grafting density of a radiolabeled GFR-binding compound as defined in the present disclosure covalently grafted on a polymer scaffold and of a radiolabeled GFR-binding compound and a non-labeled RGD peptide both grafted on a polymer scaffold. The measurements were performed by using radioactivity quantification (no significant difference was observed). […]

Substance | phosphorylation at Thr202 and Tyr204 on ERK (ERK) | phosphorylation of Src kinase (Src kinase) | PDK1 protein expression [1] | Paxillin gene expression (Paxillin) | Vinculin gene expression (Vinculin) | Cyclin D gene expression [2] | release of GFR-binding compound from non-covalent association [3] | Morphology of neoplastic cells by immunofluorescence visualization [4]
SEQ ID NO: 30: GFR-binding compound covalently associated with PET as bioactive carrier; sequence only in the sequence listing (APTKLSAISMLYYDSSNNVIEQLSN; also: covalently attached to PET) | absence of phosphorylation | no phosphorylation at Thr416 but phosphorylation of Tyr527 | decrease | decreased | decreased | decreased |  | 
SEQ ID NO: 10: GFR-binding compound non-covalently associated with type-I collagen sponge; sequence only in the sequence listing (PSSAPTQLSATSVLYYDDSSNVILRKHR; not fully specified) |  |  |  |  |  |  | no significant release | 
SEQ ID NO: 9: GFR-binding compound non-covalently associated with apatite ceramics; sequence only in the sequence listing (RNVQCRPTQVQLSAISTLYLEIVRKKPLKNYQTLEDH; non-covalently associated with apatite ceramics; Non-cyclic GFR-binding peptide) |  |  |  |  |  |  | no significant release | 
SEQ ID NO: 19: GFR-binding compound covalently associated with PET as bioactive carrier; sequence only in the sequence listing (PSSAPTQLSATSMLYYDDSSNVILRKHRQHNK; also: covalently attached to PET) | absence of phosphorylation | no phosphorylation at Thr416 but phosphorylation of Tyr527 | decrease | decreased | decreased | decreased |  | 
SEQ ID NO: 2: a GFR-binding compound as defined in the present disclosure, grafted on a polymer scaffold in a mixture with a RGD peptide (KVGKASSVPTKLSAISTLYLDDMGVPTLKNYQNMVVRASGSH; also: grafted on polymer scaffold in mixture with RGD peptide) |  |  |  |  |  |  |  | Spheroid-like structures of neoplastic cells become predominant
SEQ ID NO: 39: GFR-binding compound covalently associated with PET as bioactive carrier; sequence only in the sequence listing (KASSVPTELSPISTLYKDENEKVVLKYHYDMVV; also: covalently attached to PET) | absence of phosphorylation | no phosphorylation at Thr416 but phosphorylation of Tyr527 | decrease | decreased | decreased | decreased |  | 
SEQ ID NO: 12: GFR-binding compound covalently associated with PET as bioactive carrier; sequence only in the sequence listing (KVGKASSVPTKLSAISMLYLDDMGVPTLKNYQNMVVRAS; also: covalently attached to PET (bioactive carrier), site not given here) | absence of phosphorylation | no phosphorylation at Thr416 but phosphorylation of Tyr527 | decrease | decreased | decreased | decreased |  | 

Source: patent US20190224279A1, “PHARMACEUTICAL ASSOCIATION COMPRISING A GROWTH FACTOR RECEPTOR AGONIST CONJUGATED TO A BIOACTIVE CARRIER FOR CONVERTING A NEOPLASTIC CELL INTO A NON-NEOPLASTIC CELL AND USES THEREOF” (HISTIDE AG, priority 2015, published 2019)
